# Data published in patent US8283353B2, “Fused ring compound and use thereof” (Takeda Pharmaceutical Company Limited, priority 2009, dated 2012).
# Key:
# [1] = molecular target: T1, human PPARγ (Homo sapiens, UniProt P37231); assay: PPARγ agonistic activity: luciferase reporter assay in PPARγ:RXRα:4ERPP/CHO-K1 cells; format: cell-based; details: CHO-K1, test compound 10^−6 M; luciferase activity of control compound X (1 μM) = 100%, non-administration group = 0%
# T1 construct: expressed in transfected cells
# T1 sequence (P37231 1-477 isoform P37231-2): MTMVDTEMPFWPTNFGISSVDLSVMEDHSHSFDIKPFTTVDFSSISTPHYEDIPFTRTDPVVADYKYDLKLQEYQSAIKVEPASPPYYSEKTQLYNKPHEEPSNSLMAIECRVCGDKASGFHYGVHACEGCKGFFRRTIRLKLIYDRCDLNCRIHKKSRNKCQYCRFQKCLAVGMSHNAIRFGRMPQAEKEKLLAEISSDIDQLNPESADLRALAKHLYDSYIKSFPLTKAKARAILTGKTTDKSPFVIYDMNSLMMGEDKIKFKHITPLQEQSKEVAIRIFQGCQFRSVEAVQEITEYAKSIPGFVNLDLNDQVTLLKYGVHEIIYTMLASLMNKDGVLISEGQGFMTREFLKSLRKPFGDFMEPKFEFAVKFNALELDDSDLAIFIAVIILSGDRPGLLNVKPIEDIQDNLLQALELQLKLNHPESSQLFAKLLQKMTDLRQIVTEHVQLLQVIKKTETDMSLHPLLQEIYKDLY
# T1 sequence (P19793 1-462 partner): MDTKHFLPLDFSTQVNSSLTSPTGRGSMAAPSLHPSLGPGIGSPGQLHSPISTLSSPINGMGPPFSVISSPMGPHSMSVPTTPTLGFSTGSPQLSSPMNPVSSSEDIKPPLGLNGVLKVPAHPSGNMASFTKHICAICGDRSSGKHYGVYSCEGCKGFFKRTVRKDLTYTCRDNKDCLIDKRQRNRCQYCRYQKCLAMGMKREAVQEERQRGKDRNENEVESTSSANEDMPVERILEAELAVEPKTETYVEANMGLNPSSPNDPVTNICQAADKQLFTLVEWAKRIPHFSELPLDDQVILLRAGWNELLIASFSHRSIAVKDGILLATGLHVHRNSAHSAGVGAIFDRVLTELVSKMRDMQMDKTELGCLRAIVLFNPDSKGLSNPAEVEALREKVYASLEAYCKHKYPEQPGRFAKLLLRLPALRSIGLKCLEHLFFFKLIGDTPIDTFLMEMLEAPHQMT
# Summary of the method: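 Activity is expressed relative to untreated cells (0%) and 1 μM reference compound X (100%), from luciferase luminescence. Reporter line: PPARγ:RXRα:4ERPP/CHO-K1, exposed to compound for one day at 37 °C in F12 medium containing 0.1% fatty-acid-free BSA.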
# [2] = molecular target: T2, human AT1 receptor (Homo sapiens, UniProt P30556); assay: AT1 receptor antagonistic activity: [125I]-angiotensin II binding assay on human AT1 receptor-expressing CHO-K1 cellular membrane fraction; details: 22.5 pM [125I]-angiotensin II, 1 hr room temperature
# T2 construct: expressed in transfected cells; membrane fraction
# T2 sequence (P30556 1-359): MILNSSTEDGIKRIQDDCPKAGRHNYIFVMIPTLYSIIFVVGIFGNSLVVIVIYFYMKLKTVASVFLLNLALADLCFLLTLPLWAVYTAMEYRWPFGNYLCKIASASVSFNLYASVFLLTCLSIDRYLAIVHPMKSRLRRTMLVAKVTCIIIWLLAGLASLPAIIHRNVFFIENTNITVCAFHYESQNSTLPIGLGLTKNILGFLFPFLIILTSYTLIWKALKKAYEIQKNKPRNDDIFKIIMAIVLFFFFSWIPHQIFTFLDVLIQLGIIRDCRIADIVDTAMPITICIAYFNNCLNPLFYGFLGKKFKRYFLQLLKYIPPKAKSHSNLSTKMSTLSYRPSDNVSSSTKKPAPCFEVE
# Summary of the method: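 Competition binding used radiolabelled angiotensin II on stably transfected CHO-K1 membrane fractions in Tris pH 7.4/MgCl2 buffer, optionally containing 0.3 mg/mL fatty acid-free BSA, 1 hr at room temperature. Filtration onto GF/C separated bound tracer, and nonspecific binding was measured with candesartan.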
Compound,activation at 1 µM [1] [%],IC50 [2] [nM]
"CCCc1c(Cc2ccc(-c3ccccc3-c3noc(=O)[nH]3)cc2)c(=O)n(C2CCC3(CC2)OCC(C)(C)CO3)c2ncnn12 [Example 170, 4-(3,3-dimethyl-1,5-dioxaspiro[5.5]undec-9-yl)-6-{[2′-(5-oxo-4,5-dihydro-1,2,4-oxadiazol-3-yl)biphenyl-4-yl]methyl}-7-propyl[1,2,4]triazolo[1,5-a]pyrimidin-5(4H)-one]",20,1.6
"CCCc1c(Cc2ccc(-c3ccccc3-c3noc(=O)[nH]3)cc2F)c(=O)n([C@H]2C[C@H](OCC(C)(C)O)C2)c2ncnn12 [Example 367, 6-{[3-fluoro-2′-(5-oxo-4,5-dihydro-1,2,4-oxadiazol-3-yl)biphenyl-4-yl]methyl}-4-[trans-3-(2-hydroxy-2-methylpropoxy)cyclobutyl]-7-propyl[1,2,4]triazolo[1,5-a]pyrimidin-5(4H)-one]",25,2.2
"CCCc1c(Cc2ccc(-c3ccccc3-c3noc(=O)[nH]3)cc2)c(=O)n([C@H]2CC[C@@]3(CCC(CO)O3)CC2)c2ncnn12 (stereo partly drawn) [Example 392, 4-[(5R,8R)-2-(hydroxymethyl)-1-oxaspiro[4.5]dec-8-yl]-6-{[2′-(5-oxo-4,5-dihydro-1,2,4-oxadiazol-3-yl)biphenyl-4-yl]methyl}-7-propyl[1,2,4]triazolo[1,5-a]pyrimidin-5(4H)-one]",20,2.2
"CCCc1c(Cc2ccc(-c3ccccc3-c3noc(=O)[nH]3)cc2F)c(=O)n([C@H]2CC[C@](C)(OCC(C)(C)O)CC2)c2nc(C)nn12 [Example 368, 6-{[3-fluoro-2′-(5-oxo-4,5-dihydro-1,2,4-oxadiazol-3-yl)biphenyl-4-yl]methyl}-4-[trans-4-(2-hydroxy-2-methylpropoxy)-4-methylcyclohexyl]-2-methyl-7-propyl[1,2,4]triazolo[1,5-a]pyrimidin-5(4H)-one]",19,2.2
"CCCCc1c(Cc2ccc(-c3ccccc3-c3noc(=O)[nH]3)cc2)c(=O)n(C2CCOCC2)c2ncnn12 [Example 125, 7-butyl-6-{[2′-(5-oxo-4,5-dihydro-1,2,4-oxadiazol-3-yl)biphenyl-4-yl]methyl}-4-(tetrahydro-2H-pyran-4-yl)[1,2,4]triazolo[1,5-a]pyrimidin-5(4H)-one]",23,1.9
"CCCc1c(Cc2ccc(-c3ccccc3-c3noc(=O)[nH]3)cc2)c(=O)n([C@H]2CC[C@H](OCC(C)=O)CC2)c2ccnn12 [Example 420, 6-{[2′-(5-oxo-4,5-dihydro-1,2,4-oxadiazol-3-yl)biphenyl-4-yl]methyl}-4-[trans-4-(2-oxopropoxy)cyclohexyl]-7-propylpyrazolo[1,5-a]pyrimidin-5(4H)-one]",21,2.2

# More lines, now with the values ahead:
activation at 1 µM [1] [%],IC50 [2] [nM],Compound
39,2.4,"CCCc1c(Cc2ccc(-c3ccccc3-c3noc(=O)[nH]3)cc2)c(=O)n(C2CCC(OC)CC2)c2ncnn12 (stereo not drawn) [Example 152, 4-(4-methoxycyclohexyl)-6-{[2′-(5-oxo-4,5-dihydro-1,2,4-oxadiazol-3-yl)biphenyl-4-yl]methyl}-7-propyl[1,2,4]triazolo[1,5-a]pyrimidin-5(4H)-one]"
35,3.1,"CCCc1c(Cc2ccc(-c3ccccc3-c3noc(=O)[nH]3)cc2)c(=O)n([C@H]2CC[C@](C)(CO)CC2)c2ncnn12 [Example 189, 4-[trans-4-(hydroxymethyl)-4-methylcyclohexyl]-6-{[2′-(5-oxo-4,5-dihydro-1,2,4-oxadiazol-3-yl)biphenyl-4-yl]methyl}-7-propyl[1,2,4]triazolo[1,5-a]pyrimidin-5(4H)-one]"
42,2.2,"CCCc1c(Cc2ccc(-c3ccccc3-c3noc(=O)[nH]3)cc2)c(=O)n([C@H]2CC[C@@H](Oc3ccc(O)cc3)CC2)c2ncnn12 [Example 274, 4-[cis-4-(4-hydroxyphenoxy)cyclohexyl]-6-{[2′-(5-oxo-4,5-dihydro-1,2,4-oxadiazol-3-yl)biphenyl-4-yl]methyl}-7-propyl[1,2,4]triazolo[1,5-a]pyrimidin-5(4H)-one]"
